Experimental data from patent US5620676A, “Biologically active ATP analogs” (priority 1995, dated 1997).
“Also recorded” adds a separate entry of the source. Like-named read-outs stand apart in the source and are kept apart here.

Assays:
[1] = molecular target: T1, P2Y receptor (turkey erythrocyte membranes) (Meleagris gallopavo, UniProt P49652); assay: Stimulation of phospholipase C (inositol phosphate formation) in turkey erythrocyte membranes; assay type: biochemical
T1 construct: from tissue; host or cells: washed turkey erythrocytes, ghosts prepared by hypotonic lysis
T1 sequence (P49652 whole entry): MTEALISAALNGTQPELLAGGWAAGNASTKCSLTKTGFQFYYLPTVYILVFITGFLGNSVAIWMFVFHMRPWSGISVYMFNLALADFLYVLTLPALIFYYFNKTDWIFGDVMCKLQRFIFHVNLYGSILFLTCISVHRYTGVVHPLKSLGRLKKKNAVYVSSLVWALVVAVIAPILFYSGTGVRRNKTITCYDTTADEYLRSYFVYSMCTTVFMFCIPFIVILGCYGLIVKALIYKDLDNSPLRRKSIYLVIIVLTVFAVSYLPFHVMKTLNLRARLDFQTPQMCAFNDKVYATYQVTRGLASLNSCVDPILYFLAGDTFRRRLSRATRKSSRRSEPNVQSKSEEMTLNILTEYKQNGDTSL
Description: Phospholipase C activity: Stimulation of inositol phosphate formation by compounds of the present invention was measured in turkey erythrocyte membranes as described by Harden et al., supra and Boyer et al., supra. The K0.5 values were averaged from 3-8 independently determined dose-response curves for each compound. Briefly, one ml of washed turkey erythrocytes was incubated in inositol-free medium (DMEM; Gibco) with 0.5-1 mCi of 2-[^3 H]myoinositol (20 Ci/mmol; American Radiolabeled Chemicals Inc., St. Louis, Mo.)for 18-24 h in a humidified atmosphere of 95% air 5% CO2 at 37° C. Erythrocyte ghosts were prepared by rapid lysis in hypotonic buffer (5 mM sodium phosphate, pH 7.4, 5 mM MgCl2, 1 mM EGTA) as described by Boyer et al., supra. Phospholipase C activity was measured in 25 μl of [^3 H]inositol-labeled ghosts (≈175 μg of protein, 200-500,000 cpm/assay) in a medium containing 424 μM CaC12, 0.91 mM MgSO4, 2 mM EGTA, 115 mM KCl, 5 mM KH2 PO4, and 10 mM Hepes, pH 7.0. Assay (100 μl or 200 μl final volume) contained 1 μM GTPγS and the indicated concentrations of nucleotide analogs. Ghosts were incubated at 30° C. for 5 min, and total [^3 H]inositol phosphates were quantitated after purification by anion exchange chromatography according to Harden et al. (supra) and Boyer et al. (supra).
(§1) Phospholipase C activity and muscle relaxation/contraction effects were assessed using the methods recited in Example 3. In FIGS. 10-12, which present the result of assays of phospholipase C activity in turkey erythrocyte membranes, the x-axis is marked in units of the log of the molar concentration of the putative P2Y receptor agonist tested and the y-axis is marked in units of the percentage of maximum production of [^3 H]-inositol phosphate generated. In FIG. 13, the x-axis is marked in units of the negative log of the molar concentration of applied putative P2Y receptor agonists and the y-axis is marked in units of the percentage relaxation of the 50 nM carbachol-induced contraction of guinea pig taenia coli. In FIG. 14, the x-axis is also marked in units of the negative log of the molar concentration of applied putative P2Y receptor agonists and the y-axis is marked in units of the percentage relaxation of the 1 μM noradrenalin-induced contraction of rabbit aorta endothelium. In FIGS. 15-16, the x-axis is marked in units of the negative log of the molar concentration of applied putative p^2X receptor agonists and the y-axis is marked in units of the percentage contraction relative to a standard dose of KCl (i.e., 60 mM), as assessed in guinea pig isolated urinary bladder detrussor muscle (FIG. 15) and guinea pig isolated vas deferens (FIG. 16).

[2] = molecular target: T2, P2Y receptor (taenia coli) (Cavia porcellus, UniProt P59902); assay: Relaxation of carbachol-contracted guinea pig taenia coli
T2 construct: Relaxant responses mediated via P2Y receptors were examined in guinea pig taenia coli; from tissue; host or cells: guinea pig taenia coli (carbachol-contracted)
T2 sequence (P59902 whole entry): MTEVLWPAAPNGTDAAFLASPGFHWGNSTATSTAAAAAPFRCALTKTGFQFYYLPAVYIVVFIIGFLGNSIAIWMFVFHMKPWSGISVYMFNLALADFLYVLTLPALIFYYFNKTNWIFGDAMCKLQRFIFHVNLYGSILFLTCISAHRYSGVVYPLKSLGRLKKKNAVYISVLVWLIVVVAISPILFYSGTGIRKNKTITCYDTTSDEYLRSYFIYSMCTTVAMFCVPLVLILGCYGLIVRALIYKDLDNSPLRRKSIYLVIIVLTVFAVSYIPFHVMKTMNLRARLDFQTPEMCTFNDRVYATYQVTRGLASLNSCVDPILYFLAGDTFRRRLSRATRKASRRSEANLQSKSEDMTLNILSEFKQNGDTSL
Source text: Muscular relaxation/contraction: Relaxant responses mediated via P2Y receptors were examined in guinea pig taenia coli, rabbit aorta, and rabbit mesenteric artery, as described by Hoyle et al. (Br. J. Pharmacol., 107, 367-374 (1992a)), Burnstock et al., (Br. J. Pharmacol., 90, 383-391 (1987a)), and Rubino et al., (Eur. J. Pharmacol., 212, 237-240 (1992)). Contractile responses mediated via P2X receptors were examined in the guinea pig urinary bladder and vas deferens, and rabbit saphenous artery, also using standard methods (see Hoyle et al., supra., 1992; Hoyle et al., Br. J. Pharmacol., 99, 617-621 (1990); and Burnstock et al., Br. J. Pharmacol., 90, 111-120 (1987b)).
Muscular relaxation assays were performed as recited in Example 3. […] All curves are the mean of two determinations except for 5'-ATP (n=38), 2-hexylthio-ATP (n=4), 2-(5-hexenyl)thio-ATP (n=3), and 2-(2-4-nitrophenylethyl)thio-AMP (n=5). […] The pD2 value for 2-methylthio-ATP is 8.0±0.15, as reported by Hoyle et al., in Receptor Data for Biological Experiments, (H. N. Doods and J. C. A. Van Meel, eds., 1992b) at pp. 54-61.
as §1

[3] = molecular target: P2Y receptor (mesenteric artery); assay: Relaxation of rabbit mesenteric artery; settings: log molar units
[4] = tested on: P2Y receptor (aorta endothelium); assay: Relaxation of noradrenalin-contracted rabbit aorta; settings: rabbit aorta; log molar units
[5] = molecular target: T3, P2X receptor (vas deferens) (Cavia porcellus, UniProt A0A286XVA9); assay: Contraction of guinea pig isolated vas deferens
T3 sequence (A0A286XVA9 1-399): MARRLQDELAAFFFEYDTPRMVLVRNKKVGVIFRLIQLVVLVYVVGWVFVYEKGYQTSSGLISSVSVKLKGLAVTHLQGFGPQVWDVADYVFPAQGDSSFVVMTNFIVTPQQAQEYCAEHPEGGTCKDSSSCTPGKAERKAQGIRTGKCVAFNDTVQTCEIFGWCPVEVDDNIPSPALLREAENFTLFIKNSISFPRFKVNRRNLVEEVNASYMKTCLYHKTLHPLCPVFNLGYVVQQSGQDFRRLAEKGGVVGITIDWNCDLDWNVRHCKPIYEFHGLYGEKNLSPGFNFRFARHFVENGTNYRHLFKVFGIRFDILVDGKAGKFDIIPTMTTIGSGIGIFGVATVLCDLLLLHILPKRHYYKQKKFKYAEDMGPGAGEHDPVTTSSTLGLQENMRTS

[6] = turkey erythrocyte membranes, mean ± S.E.M. for at least 2 determinations, read-out: phosphatidyl inositol metabolism (K0.5, nM) erythrocyte
[7] = turkey erythrocyte membranes, read-out: K0.5

Row | EC50 [1, 6] [nM] | SMILES | activity/potency in words, turkey erythrocyte ([1]; turkey erythrocyte membranes) | relaxation pD2, mes. artery [3] | relaxation pD2, aorta [4] | other results
1 | 1.53 ± 0.21 | Nc1ccc(CCSc2nc(N)c3ncn([C@@H]4O[C@H](COP(=O)(O)OP(=O)(O)OP(=O)(O)O)[C@@H](O)[C@H]4O)c3n2)cc1 [2-(2-p-Aminophenylethyl)-thio-ATP, 2-[2-(p-Aminophen)ethylthio]adenosine 5'-triphosphate] | at least two orders of magnitude more potent | – | – | EC50 [1, 7]: 5 to 30 nM
2 | 72.8 ± 46.6 | NCCCCCCCSc1nc(N)c2ncn([C@@H]3O[C@H](COP(=O)(O)OP(=O)(O)OP(=O)(O)O)[C@@H](O)[C@H]3O)c2n1 [2-(7-Aminoheptyl)thio-ATP, 2-(7-Aminoheptylthio)-adenosine-5'-triphosphate] | – | – | – | –
3 | 773 ± 328 | Nc1nc(SCCCCCCCS)nc2c1ncn2[C@@H]1O[C@H](COP(=O)(O)OP(=O)(O)OP(=O)(O)O)[C@@H](O)[C@H]1O [2-(7-Thioheptyl)thio-ATP, 2-(7-Thioheptylthio)-adenosine-5'-triphosphate] | – | – | – | –
4 | 25.9 ± 10 | N#CSCCCCCCCSc1nc(N)c2ncn([C@@H]3O[C@H](COP(=O)(O)OP(=O)(O)OP(=O)(O)O)[C@@H](O)[C@H]3O)c2n1 [2-[(7-Thiocyanatoheptyl)thio]-ATP, 2-(7-Thiocyanatoheptylthio)-adenosine-5'-triphosphate] | at least two orders of magnitude more potent | – | – | EC50 [1, 7]: 5 to 30 nM
5 | 214 ± 2 | CCCCCCCCCCSc1nc(N)c2ncn([C@@H]3O[C@H](COP(=O)(O)O)[C@@H](O)[C@H]3O)c2n1 [2-decylthio AMP] | – | – | – | –
6 | 1000 | CCCCCCCSc1nc(N)c2ncn([C@@H]3O[C@H](COP(=O)(O)O)[C@@H](O)[C@H]3O)c2n1 [2-hepylthio AMP] | – | – | – | –
7 | 295 ± 6 | CCCCCCCCSc1nc(N)c2ncn([C@@H]3O[C@H](COP(=O)(O)O)[C@@H](O)[C@H]3O)c2n1 [2-octylthio AMP] | – | – | – | –

Second part, the compound before the results:

Row | SMILES | EC50 [1, 6] [nM] | activity/potency in words, turkey erythrocyte ([1]; turkey erythrocyte membranes) | relaxation pD2, mes. artery [3] | relaxation pD2, aorta [4] | other results
8 | CCSCCSc1nc(N)c2ncn([C@@H]3O[C@H](COP(=O)(O)O)[C@@H](O)[C@H]3O)c2n1 | 1000 | – | – | – | –
9 | Cn1c(=O)c2c(ncn2C)n(CCOP(=O)(O)OP(=O)(O)OP(=O)(O)O)c1=O [1,7-dimethyl-3-(2-hydroxyethyl)xanthine triphosphate] | – | – | – | – | EC50 [1, 7]: 100000 nM
10 | Nc1nc(SCCc2ccc([N+](=O)[O-])cc2)nc2c1ncn2[C@@H]1O[C@H](COP(=O)(O)O)[C@@H](O)[C@H]1O [2-(2-p-Nitrophenylethyl)-thio-AMP, 2-[2-(p-nitrophen)ethylthio]adenosine 5'-monophosphate] | 3000 ± 1200 | – | 5.0 | 6.1 | activity/potency in words, taenia coli ([2]; guinea pig taenia coli): slightly less potent than ATP; relaxation pD2, taenia coli ([2]; guinea pig taenia coli, log molar units): 6.5
11 | Nc1nc(SC2CCCCC2)nc2c1ncn2[C@@H]1O[C@H](COP(=O)(O)OP(=O)(O)OP(=O)(O)O)[C@@H](O)[C@H]1O [2-Cyclohexylthio-ATP, 2-cyclohexylthio-ATP] | 24 ± 4 | at least two orders of magnitude more potent | 5.9 | 6.3 | EC50 [2]: 15.8 nM; EC50 [1, 7]: 5 to 30 nM
12 | Nc1nc(SCCc2ccccc2)nc2c1ncn2[C@@H]1O[C@H](COP(=O)(O)OP(=O)(O)OP(=O)(O)O)[C@@H](O)[C@H]1O [2-Phenylethylthio-ATP, 2-phenylethylthio-ATP] | 30 ± 17 | at least two orders of magnitude more potent | 6.2 | 6.5 | EC50 [2]: 79.4 nM; EC50 [1, 7]: 5 to 30 nM
13 | CCCCCCSc1nc(N)c2ncn([C@@H]3O[C@H](COP(=O)(O)O)[C@@H](O)[C@H]3O)c2n1 [2-hexylthio AMP] | 58 ± 5 | – | – | – | –
14 | CCCCCSc1nc(N)c2ncn([C@@H]3O[C@H](COP(=O)(O)O)[C@@H](O)[C@H]3O)c2n1 [2-pentylthio AMP] | 10000 | – | – | – | –
15 | CCCCCCCCCCCSc1nc(N)c2ncn([C@@H]3O[C@H](COP(=O)(O)O)[C@@H](O)[C@H]3O)c2n1 [2-undecylthio AMP] | 1000 | – | – | – | –
16 | Nc1ncnc2c1ncn2[C@@H]1O[C@H](COP(=O)(O)OP(O)(O)=S)[C@@H](O)[C@H]1O [ADP-β-S, reference compound] | 96 ± 27 | enhanced potency relative to the parent compound; also recorded: a very high affinity for the turkey erythrocyte P2Y receptor | 5.8 | 5.8 | activity/potency in words, taenia coli ([2]; guinea pig taenia coli): not in the taenia coli; also recorded: no greater affinity for the P2Y receptor in the guinea-pig taenia coli than ATP or ADP; times more potent than ADP, turkey erythrocyte ([1]; relative to ADP): ~400 times; times more potent than ATP, turkey erythrocyte ([1]; relative to ATP): approximately 140 times
17 | Nc1ncnc2c1ncn2[C@@H]1O[C@H](COP(=O)(O)OP(=O)(O)OP(O)(O)=S)[C@@H](O)[C@H]1O [ATP-γ-S, reference compound] | 1260 ± 380 | enhanced potency relative to the parent compound | 5.8 | 5.7 | activity/potency in words, taenia coli ([2]; guinea pig taenia coli): not in the taenia coli
18 | Nc1ncnc2c1ncn2[C@@H]1O[C@H](CO)[C@@H](O)[C@H]1O [Adenosine, reference compound] | – | – | 6.0 | 5.7 | EC50 [2]: 126000 nM; EC50 ([1]; at 10^-5 M, read-out: phosphatidyl inositol metabolism (K0.5) erythrocyte, class symbol): > 10000 nM
19 | Nc1ncnc2c1ncn2[C@@H]1O[C@H](COP(=O)(O)OP(=O)(O)NP(=O)(O)O)[C@@H](O)[C@H]1O [AppNHp, reference compound] | 4450 ± 1150 | equipotent with ATP in the erythrocytes | 6.6 | 5.5 | activity/potency in words, taenia coli ([2]; guinea pig taenia coli): an effect similar to methylene replacement; activity/potency in words, vas deferens [5]: an effect similar to methylene replacement
20 | O=P(O)(O)OP(=O)(O)OP(=O)(O)OC[C@H]1O[C@@H](n2cnc3c(NCCc4ccccc4)ncnc32)[C@H](O)[C@@H]1O [N^6 -phenylethyl ATP, N^6 -phenylethyl-ATP] | 7000 | – | – | – | –
21 | Cn1c(=O)c2c(ncn2CCOP(=O)(O)OP(=O)(O)OP(=O)(O)O)n(C)c1=O [β-Hydroxyethyltheophylline triphosphate] | – | – | – | – | EC50 [1, 7]: 26900 nM
